Among the data in US20250179059A1 (The Regents of the University of California, priority 2021, published 2025) are GI50 values, retold here.

The GI50 is the concentration that inhibits growth by half. Read a high GI50 as less potent growth inhibition.

The assay concerns human SKM-1 acute myeloid leukemia cells. Kind of assay: SKM-1 antiproliferation cell-based assay (ATPlite). On the procedure:
The cell-based assay indirectly measures cell density (and therefore proliferation and/or survival) by detecting total ATP concentration in a homogeneous format. Briefly, human SKM-1 acute myeloid leukemia cells (Leibniz Institute DSMZ #ACC 547) proliferating in log phase are collected by centrifugation, re-suspended in culture media (RPMI 1640/15% FBS/100 U/mL penicillin/100 μg/mL streptomycin) and diluted to 34722 cells/mL in media after counting. Then 180 μL cells are plated per well into a 96-well tissue-culture treated, clear bottom plate (Coming #3603). A 96-well compound plate (Corning #3357) is then generated by serial dilution of compounds into DMSO over nine concentrations and adding separate negative (DMSO) and positive control (reference compound) wells. Each compound concentration is tested in triplicate. First, 1 μL from each well of the compound plate is added to 99 μL culture media in an intermediate plate and mixed by pipetting. Then 20 μL of the diluted compounds in media are added to the assay plate containing the cells. The assay plate is maintained for 4 days in a standard cell culture incubator. At the end of the incubation period, 100 μL ATPlite Istep (PerkinElmer) is added to the assay plate wells, and the resulting luminescence is detected using an Infinite M1000 or a Spark multimode plate reader (Tecan). Data analysis is performed in Prism (GraphPad Software). For curve fitting, a non-linear regression, variable slope equation is used to calculate cellular IC50s.
For orientation: In ATP-based viability assays light output follows the ATP content of the culture.

Where [1] appears, read: Homo sapiens, SKM-1, SKM-1 antiproliferation assay.

SMILES strings stand for the structures.

For `Cn1ccn(-c2ccc(-c3cc(F)nc(-c4cccc(N5CCN(C(C)(C)C)CC5)c4)c3N)cc2Cl)c1=O` [Example 1056, 1-(4-(3-amino-2-(3-(4-(tert-butyl)piperazin-1-yl)phenyl)-6-fluoropyridin-4-yl)-2-chlorophenyl)-3-methyl-1,3-dihydro-2H-imidazol-2-one], the concentration for 50% growth inhibition (GI50) under setting [1] fell in the range of 0.3 to 30 nM. Still for that read-out and setting: for `Cn1ccn(-c2ccc(-c3cc(C=O)cc(-c4cccc(N5CCN(C(C)(C)C)CC5)c4)c3O)cc2Cl)c1=O` [Example 1042, 3″-(4-(tert-Butyl)piperazin-1-yl)-3-chloro-2′-hydroxy-4-(3-methyl-2-oxo-2,3-dihydro-1H-imidazol-1-yl)-[1,1′:3′,1″-terphenyl]-5′-carbaldehyde] the value was 300 to 3000 nM; for `CC1=CCN(c2ccc(-c3cc(C)nc(-c4cccc(N5CCN(C(C)(C)C)CC5)c4)c3O)cc2Cl)C1=O` [Example 1055, 1-(4-(2-(3-(4-(tert-butyl)piperazin-1-yl)phenyl)-3-hydroxy-6-methylpyridin-4-yl)-2-chlorophenyl)-3-methyl-1,5-dihydro-2H-pyrrol-2-one], 0.3 to 30 nM; for `COc1ncc(-c2nc(F)cc(-c3ccc(-n4ccn(C)c4=O)c(Cl)c3)c2O)cc1N1CCN(C(C)(C)C)CC1` [Example 1044, 1-(4-(5′-(4-(tert-Butyl)piperazin-1-yl)-6-fluoro-3-hydroxy-6′-methoxy-[2,3′-bipyridin]-4-yl)-2-chlorophenyl)-3-methyl-1H-imidazol-2(3H)-one], 0.3 to 30 nM. Same read-out and setting: to `Cc1cc(-c2ccc(N3CCN(C)C3=O)c(Cl)c2)c(O)c(-c2cccc(N3CCN(C(C)(C)C)CC3)c2)n1` [Example 1046, 1-(4-(2-(3-(4-(tert-Butyl)piperazin-1-yl)phenyl)-3-hydroxy-6-methylpyridin-4-yl)-2-chlorophenyl)-3-methylimidazolidin-2-one] belongs 0.3 to 30 nM. On to `CC1=CCN(c2ccc(-c3cc(F)cc(-c4cccc(N5CCN(C(C)(C)C)CC5)c4)c3O)cc2Cl)C1=O` [Example 1051, 1-(3″-(4-(tert-Butyl)piperazin-1-yl)-3-chloro-5′-fluoro-2′-hydroxy-[1,1′:3′,1″-terphenyl]-4-yl)-3-methyl-1,5-dihydro-2H-pyrrol-2-one], for which, under setting [1], the GI50 was in the range of 0.3 to 30 nM.

In turn, `Cc1cc(-c2ccc(-n3ccn(C)c3=O)c(Cl)c2)c(O)c(-c2ccc(=O)n(C3CCN(C(C)C)CC3)c2)n1` [Example 1048, 4-(3-Chloro-4-(3-methyl-2-oxo-2,3-dihydro-1H-imidazol-1-yl)phenyl)-3-hydroxy-1′-(1-isopropylpiperidin-4-yl)-6-methyl-[2,3′-bipyridin]-6′(1′H)-one] had a GI50 under setting [1] of 30 to 300 nM. The same measure, in the same setting: for `Cc1cc(-c2ccc(N3CCCC3=O)c(Cl)c2)c(O)c(-c2cccc(N3CCN(C(C)(C)C)CC3)c2)n1` [Example 1041, 1-(4-(2-(3-(4-(tert-butyl)piperazin-1-yl)phenyl)-3-hydroxy-6-methylpyridin-4-yl)-2-chlorophenyl)pyrrolidin-2-one] the value was 30 to 300 nM. The same measure, in the same setting: to `CCc1ncc(-c2nc(F)cc(-c3ccc(-n4ccn(C)c4=O)c(Cl)c3)c2O)cc1N1CCN(C(C)(C)C)CC1` [Example 1059, 1-(4-(5′-(4-(tert-butyl)piperazin-1-yl)-6′-ethyl-6-fluoro-3-hydroxy-[2,3′-bipyridin]-4-yl)-2-chlorophenyl)-3-methyl-1,3-dihydro-2H-imidazol-2-one] belongs 0.3 to 30 nM; to `Cn1ccn(-c2ccc(-c3cc(F)nc(-c4cccc(N5CCN(C(C)(C)C)CC5)c4)c3O)cc2F)c1=O` [Example 1054, 1-(4-{2-[3-(4-tert-Butyl-piperazin-1-yl)-phenyl]-6-fluoro-3-hydroxy-pyridin-4-yl}-2-fluoro-phenyl)-3-methyl-1,3-dihydro-imidazol-2-one], 0.3 to 30 nM; to `CC(C)(C)N1CCN(c2cccc(-c3cc(F)cc(-c4ccc(N5CCCC5=O)c(Cl)c4)c3O)c2)CC1` [Example 1045, 1-(3″-(4-(tert-Butyl)piperazin-1-yl)-3-chloro-5′-fluoro-2′-hydroxy-[1,1′:3′,1″-terphenyl]-4-yl)pyrrolidin-2-one], 30 to 300 nM. On the same count and under the same terms, for `Cc1ncc(-c2nc(F)cc(-c3ccc(-n4ccn(C)c4=O)c(Cl)c3)c2O)cc1N1CCN(C(C)(C)C)CC1` [Example 1043, 1-(4-(5′-(4-(tert-Butyl)piperazin-1-yl)-6-fluoro-3-hydroxy-6′-methyl-[2,3′-bipyridin]-4-yl)-2-chlorophenyl)-3-methyl-1H-imidazol-2(3H)-one] the value was 30 to 300 nM; for `Cc1cc(-c2ccc(-n3ccsc3=O)c(Cl)c2)c(O)c(-c2cccc(N3CCN(C(C)(C)C)CC3)c2)n1` [Example 1053, 3-(4-(2-(3-(4-(tert-butyl)piperazin-1-yl)phenyl)-3-hydroxy-6-methylpyridin-4-yl)-2-chlorophenyl)thiazol-2(3H)-one], 0.3 to 30 nM.

For `Cc1ncc(-c2cc(F)cc(-c3ccc(-n4ccn(C)c4=O)c(Cl)c3)c2O)cc1N1CC2(CC2)[C@](C)(O)C1` [Example 874], the GI50 (SKM-1 antiproliferation assay) fell in the range of 0.3 to 30 nM.

`[2H]C([2H])([2H])n1ccn(-c2ccc(-c3cc(F)nc(-c4cccc(N5CCN(C(C)(C)C)CC5)c4)c3O)cc2Cl)c1=O` [Example 1047, 1-(4-(2-(3-(4-(tert-butyl)piperazin-1-yl)phenyl)-6-fluoro-3-hydroxypyridin-4-yl)-2-chlorophenyl)-3-(methyl-d3)-1,3-dihydro-2H-imidazol-2-one]: the GI50 under setting [1] was 0.3 to 30 nM. `Cc1cc(-c2cc(F)nc(-c3cccc(N4CCN(C(C)(C)C)CC4)c3)c2O)ccc1-n1ccn(C)c1=O` [Example 1050, 1-(4-(2-(3-(4-(tert-butyl)piperazin-1-yl)phenyl)-6-fluoro-3-hydroxypyridin-4-yl)-2-methylphenyl)-3-methyl-1,3-dihydro-2H-imidazol-2-one]: the GI50 under setting [1] was in the range of 0.3 to 30 nM. In turn, `CC(C)(C)N1CCN(c2cccc(-c3cc(F)cc(-c4ccc(-n5ccsc5=O)c(Cl)c4)c3O)c2)CC1` [Example 1052, 3-(3″-(4-(tert-butyl)piperazin-1-yl)-3-chloro-5′-fluoro-2′-hydroxy-[1,1′:3′,1″-terphenyl]-4-yl)thiazol-2(3H)-one] had a GI50 under setting [1] of 0.3 to 30 nM.

For the compound `Cn1ccn(-c2ccc(-c3cc(F)nc(-c4cnc(O)c(N5CCN(C(C)(C)C)CC5)c4)c3O)cc2Cl)c1=O` [Example 1049, 1-(4-(5′-(4-(tert-butyl)piperazin-1-yl)-6-fluoro-3,6′-dihydroxy-[2,3′-bipyridin]-4-yl)-2-chlorophenyl)-3-methyl-1,3-dihydro-2H-imidazol-2-one], the GI50 under setting [1] was in the range of 30 to 300 nM. Under setting [1], `Cn1ccn(-c2ccc(-c3nc(F)cc(-c4cccc(N5CCN(C(C)(C)C)CC5)c4)c3N)cc2Cl)c1=O` [Example 1057, 1-(4-(3-amino-4-(3-(4-(tert-butyl)piperazin-1-yl)phenyl)-6-fluoropyridin-2-yl)-2-chlorophenyl)-3-methyl-1,3-dihydro-2H-imidazol-2-one] displayed a GI50 of 0.3 to 30 nM. Same read-out and setting: for `Cn1ccn(-c2ccc(-c3cc(F)cc(-c4cccc(N5CCN(C(C)(C)C)CC5)c4)c3N)cc2Cl)c1=O` [Example 1058, 1-[2′-Amino-3-(4-tert-butyl-piperazin-1-yl)-3″-chloro-5′-fluoro-[1,1′;3′,1″ ]terphenyl-4″-yl]-3-methyl-1,3-dihydro-imidazol-2-one] the value was 0.3 to 30 nM.
